# Assay results taken from patent publication US5859027A, “Antimicrobial agent” (ChekTec Corporation, priority 1997, dated 1999).
# What was measured:
# [1] = system: C. albicans strain ATCC 10231; assay: Murine systemic model of candidiasis; format: in vivo, mice; details: for % Survival: after nine days
# Method: (§1) In vivo activity was determined using a murine systemic model of candidiasis. Groups of 5 to 10 mice were inoculated IV with 1-2×10^7 cells of C. albicans strain ATCC 10231 (10 times the lethal dose). One hour after inoculation, the candidate antifungal compounds were delivered IP. 10 mg/kg of compound A was injected into each mouse of the compound A treatment group. Two separate treatment groups received 30 and 100 mg/kg, respectively, of compound B. Amphotericin B was injected into a positive control treatment group at 10 mg/kg. All compounds were delivered in phosphate-buffered saline (PBS) and one treatment group received PBS. Twice daily thereafter the mice were observed, the number of dead mice recorded, and the dead mice removed. After nine days, the total mortality over the period was determined.
# [2] = system: Candida tropicalis (strain ATCC 13803); assay: Disk diffusion assay for antimicrobial activity (Example 2); format: cell-based
# Method: (§2) Fungal cells were grown overnight from a single colony in 2-5 ml Sabouraud Dextrose Broth at 37° C. 1-5×10^6 were spread onto Sabouraud Dextrose Agar plates (Difco, Detroit, Mich.). Sterile 6 mm filter disks were evenly spaced with at least about 22 mm separation on the plates. To each disk, 100 μg of a compound to be tested was applied in 5-10 μl DMSO. On each plate, two disks containing 2.5 and 10 μg, respectively, of Amphotericin B (Sigma) and two disks containing 2.5 and 10 μg, respectively, of cerulenin (Sigma) were used as positive controls. A disk containing only DMSO served as the negative control. The plates were incubated at 37° C. for 24 hours and the zone of growth inhibition about each disk was visually examined and measured. Compound A and compound B typically produced clear zones of 8-12 mm diameter. Amphotericin B typically produced a clear zone of 8-10 mm diameter. Cerulenin typically produced a hazy zone of 20-25 mm diameter. A clear zone is indicative of fungicidal activity, while a hazy zone is indicative of fungistatic activity.
# [3] = system: Candida albicans (strains ATCC 10231 and ATCC 10261); assay: as above; format: cell-based
# Method: as §2
# [4] = Maximal tolerated dose in mice, IP administration; details: mouse, in vivo, read-out: maximal tolerated dose (maximum dose that caused no deaths within 72 hours)
# Method: as §1
# Using the same methodology, it was determined that the maximal tolerated dose in these mice (i.e., the maximum dose that caused no deaths within 72 hours following IP administration) of compound B was in excess of 200 mg/kg. The mice treated with 2108B or Amphotericin B injected IP in […] of phosphate buffered saline, pH 7.4 had the following treatment profiles: […]
# [5] = system: Candida Albicans strain B311A; assay: MIC assay (Example 1B); format: cell-based; details: for MIC: Candida albicans
# Method: The fractions from the purification were tested for antifungal activity against C. albicans (strain B311A available from Dr. Paul Actor, Temple University and strains ATCC Nos. 10231 and 10261) and C. tropicalis (strain 13803). […] Prior to the assay for antifungal activity, the fungus to be tested for susceptibility was grown overnight from a single colony in 5 ml of medium at 30° C. This overnight culture was diluted 1:10 with fresh medium and grown at 37° C. for 4 hours. A volume of 5 μl of extracts, dissolved in DMSO, was added to each separate well in a series of 96-well plates. 4,000 fungal cells were then added to each plate in 95 μl of medium. The optical densities of the wells were measured and the plates incubated at 37° C. The optical densities were again measured after 24 and 48 hours. Minimum inhibitory concentrations ("MICs") for the extracts were determined using this procedure wherein the extracts were serially diluted in medium prior to mixing with the 4,000 fungal cells.
smiles,measurement,setting,value
C/C=C/C=C/C=C/C1=CC2=CC(=O)C(C)(OC(=O)CC(C)O)C(=O)C2=CO1 (stereo not shown) [Compound B],"Deaths Each Day Post Inoculation, day 0",[1]; 30 mg/kg IP,0
same,"Deaths Each Day Post Inoculation, day 1",[1]; 30 mg/kg IP,2
same,"Deaths Each Day Post Inoculation, day 2",[1]; 30 mg/kg IP,1
same,"Deaths Each Day Post Inoculation, day 3",[1]; 30 mg/kg IP,0
same,"Deaths Each Day Post Inoculation, day 4",[1]; 30 mg/kg IP,0
same,"Deaths Each Day Post Inoculation, day 5",[1]; 30 mg/kg IP,0
same,"Deaths Each Day Post Inoculation, day 6",[1]; 30 mg/kg IP,0
same,"Deaths Each Day Post Inoculation, day 7",[1]; 30 mg/kg IP,0
same,"Deaths Each Day Post Inoculation, day 8",[1]; 30 mg/kg IP,0
same,"Deaths Each Day Post Inoculation, day 9",[1]; 30 mg/kg IP,0
same,% Survival,[1]; 30 mg/kg IP one hour after inoculation,40%
same,"Deaths Each Day Post Inoculation, day 0",[1]; 100 mg/kg IP,0
same,"Deaths Each Day Post Inoculation, day 1",[1]; 100 mg/kg IP,2
same,"Deaths Each Day Post Inoculation, day 2",[1]; 100 mg/kg IP,0
same,"Deaths Each Day Post Inoculation, day 3",[1]; 100 mg/kg IP,0
same,"Deaths Each Day Post Inoculation, day 4",[1]; 100 mg/kg IP,0
same,"Deaths Each Day Post Inoculation, day 5",[1]; 100 mg/kg IP,0
same,"Deaths Each Day Post Inoculation, day 6",[1]; 100 mg/kg IP,0
same,"Deaths Each Day Post Inoculation, day 7",[1]; 100 mg/kg IP,0
same,"Deaths Each Day Post Inoculation, day 8",[1]; 100 mg/kg IP,1
same,"Deaths Each Day Post Inoculation, day 9",[1]; 100 mg/kg IP,0
same,% Survival,[1]; 100 mg/kg IP one hour after inoculation,40%
same,antimicrobial activity (in words),[2],had antimicrobial activity
same,antimicrobial activity (in words),[3],had antimicrobial activity
same,MTD at 72 h,[4],> 200 mg/kg
same,MIC,[5]; Sabouraud Dextrose Broth substituted for YNB medium,50 µg/mL
same,MIC,[5]; YNB medium,6.25 µg/mL
same,activity in the MIC assay of Example 1B (in words),"[5]; HPLC-purified material, strain not stated",retained activity
